Assay results: patent US11530244B2, “Cyclic polypeptides for PCSK9 inhibition” (priority 2018, dated 2022)
Starred links: 1 amine or outer side, 2 acyl side, 3 side chain; linkers in the order of their positions; H or OH if unused. Positions of bridges follow the written chain, without caps; N, C: chain ends. Non-standard residues stand in square brackets, D forms with d. Residues, ends and D or L forms follow the SMILES beside them. Trp(5-F) = N[C@@H](Cc1c[nH]c2ccc(F)cc12)C(=O)O; mXylylene(5-F) = Fc1cc(C[*:1])cc(C[*:2])c1; Bip = N[C@@H](Cc1ccc(-c2ccccc2)cc1)C(=O)O; Phe(4-CN) = N#Cc1ccc(C[C@H](N)C(=O)O)cc1; Dip = N[C@H](C(=O)O)C(c1ccccc1)c1ccccc1; X36 = O=C([C@H](CC1=NC=NC1)N[*:1])[*:2]; X4 = O=C(CCSCc1cccc(CSCCN[*:1])c1)[*:2]; 1Nal = N[C@@H](Cc1cccc2ccccc12)C(=O)O; mXylylene = c1cc(C[*:1])cc(C[*:2])c1; AEF = NCCOc1ccc(C[C@H](N)C(=O)O)cc1; X8 = Clc1cc(C[*:1])cc(C[*:2])c1; NMeD = CN[C@@H](CC(=O)O)C(=O)O; aThr = C[C@H](O)[C@H](N)C(=O)O; NMeV = CN[C@H](C(=O)O)C(C)C; αMeP = C[C@@]1(C(=O)O)CCCN1; NMeS = CN[C@@H](CO)C(=O)O; Pip = O=C(O)[C@@H]1CCCCN1; Orn = NCCC[C@H](N)C(=O)O; Aze = O=C(O)[C@@H]1CCN1; Nva = CCC[C@H](N)C(=O)O; Aib = CC(C)(N)C(=O)O; Mpa = O=C(O)CCS; Sar = CNCC(=O)O

Tests used:
PCSK9 = PCSK9 (Homo sapiens (Human), UniProt Q8NBP7); assay: PCSK9 Alexa FRET Standard assay (displacement of AlexaFluor647 tagged cyclic peptide Reagent A); assay type: binding; settings: PCSK9 Alexa FRET Standard assay, 0.5 nM PCSK9, 20 nM AF cyclic peptide Reagent A; read-out: IC50
How it was run: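 TR-FRET displacement: 0.5 nM biotinylated PCSK9 with 1.25 nM Strep-Eu and 20 nM AlexaFluor-tagged cyclic peptide (final) in 50 mM HEPES pH 7.4, 0.15 M NaCl, 5 mM CaCl2, 0.01% BSA, 0.01% P20, ≥2 h at room temperature. IC50 from sigmoidal fit, converted to Ki via peptide KD; falling Eu counts flagged false positives.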

[1] = molecular target: human PCSK9 / human LDLR EGFa domain interaction (Homo sapiens (Human), UniProt Q8NBP7); assay: TR-FRET assay of inhibition of the PCSK9-LDLR protein-protein interaction; assay type: binding; settings: TR-FRET, 20 nM human PCSK9, 20 nM human LDLR EGFa domain, 2 hours room temperature; read-out: IC50
How it was run: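 Half-maximal inhibitory concentrations came from 4-parameter fits of dose-response data. Proteins: biotinylated PCSK9, His-tagged LDLR EGFa, 20 nM each; labels 5 nM; 2 h, room temperature; buffer 50 mM HEPES, 150 mM NaCl, 5 mM CaCl2.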

Sequence of PCSK9 (Q8NBP7 153-692): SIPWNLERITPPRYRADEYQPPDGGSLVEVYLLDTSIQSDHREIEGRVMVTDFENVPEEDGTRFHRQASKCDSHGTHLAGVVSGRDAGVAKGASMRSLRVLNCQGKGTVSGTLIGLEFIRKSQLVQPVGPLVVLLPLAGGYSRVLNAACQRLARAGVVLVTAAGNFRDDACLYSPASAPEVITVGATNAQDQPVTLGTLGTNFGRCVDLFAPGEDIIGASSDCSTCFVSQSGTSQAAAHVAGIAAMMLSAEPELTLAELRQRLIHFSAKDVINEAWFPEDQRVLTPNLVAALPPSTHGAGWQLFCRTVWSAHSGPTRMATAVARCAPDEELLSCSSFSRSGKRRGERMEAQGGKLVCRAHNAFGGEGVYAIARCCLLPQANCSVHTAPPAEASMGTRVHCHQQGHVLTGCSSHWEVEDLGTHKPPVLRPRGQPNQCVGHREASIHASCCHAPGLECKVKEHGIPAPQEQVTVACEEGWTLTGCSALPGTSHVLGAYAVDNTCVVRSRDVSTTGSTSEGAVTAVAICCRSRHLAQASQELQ
Sequence of human PCSK9 / human LDLR EGFa domain interaction (Q8NBP7 153-692): as above
Sequence of human PCSK9 / human LDLR EGFa domain interaction (Q8NBP7 31-152 partner): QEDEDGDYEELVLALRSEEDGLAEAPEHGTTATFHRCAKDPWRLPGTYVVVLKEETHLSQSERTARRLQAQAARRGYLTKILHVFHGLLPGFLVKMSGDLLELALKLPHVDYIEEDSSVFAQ

Row | SMILES | IC50 (PCSK9) [µM] | IC50 [1] [µM]
1 | CC(=O)N[C@H]1CCC(=O)NCCOc2ccc(cc2)C[C@@H](C(N)=O)NC(=O)[C@]2(C)CCCN2C(=O)[C@H](Cc2ccc(O)cc2)NC(=O)[C@H](Cc2c[nH]cn2)NC(=O)[C@H](CC(=O)O)NC(=O)[C@H](Cc2c[nH]c3ccc(F)cc23)NC(=O)[C@H](Cc2c[nH]c3ccc(F)cc23)NC(=O)CNC(=O)[C@H](C)NC1=O [Compound 311] (Ac-EAG[Trp(5-F)][Trp(5-F)]DHY[αMeP][AEF]-NH2; lactam 1-10) | 1 to 12.1 | 0.1 to 1
2 | COc1ccc(C[C@@H]2NC(=O)[C@H]([C@@H](C)O)NC(=O)[C@@H]3CCCN3C(=O)[C@H](Cc3c[nH]c4ccc(F)cc34)NC(=O)[C@H](Cc3c[nH]c4ccc(F)cc34)NC(=O)[C@@H](C)NC(=O)[C@H](CCCCN)NC(=O)CCSCc3cc(Cl)cc(c3)CSC[C@@H](C(N)=O)NC(=O)[C@]3(C)CCCN3C2=O)cc1 [Compound 064] ([Mpa]K[dA][Trp(5-F)][Trp(5-F)]PTY(Me)[αMeP]C-NH2; linker 1-10 via X8) | 1 to 12.1 | 1 to 12.1
3 | COc1ccc(C[C@@H]2NC(=O)[C@H](CC3=NC=NC3)NC(=O)[C@H](CC(=O)O)NC(=O)[C@H](Cc3c[nH]c4ccc(F)cc34)NC(=O)[C@H](C(c3ccccc3)c3ccccc3)NC(=O)[C@@H](C)NC(=O)[C@H](CCCCN)NC(=O)CCSCc3cccc(c3)CSCCNC(=O)[C@]3(C)CCCN3C2=O)cc1 [Compound 275] (cyclo(D[X36]Y(Me)[αMeP][X4]K[dA][Dip][Trp(5-F)])) | 0.00011 to 0.1 | 0.0001 to 0.1
4 | C[C@H](O)[C@@H]1NC(=O)[C@@H]2CCCN2C(=O)[C@H](Cc2c[nH]c3ccc(F)cc23)NC(=O)[C@H](Cc2c[nH]c3ccc(F)cc23)NC(=O)CNC(=O)[C@H](CCCCN)NC(=O)CCSCc2cccc(c2)CSC[C@@H](C(N)=O)NC(=O)[C@]2(C)CCCN2C(=O)[C@H](Cc2ccc(O)cc2)NC1=O [Compound 050] ([Mpa]KG[Trp(5-F)][Trp(5-F)]P[aThr]Y[αMeP]C-NH2; linker 1-10 via mXylylene) | 21 to 50 | 21 to 50
5 | C[C@@H](O)[C@@H]1NC(=O)[C@@H]2CCCN2C(=O)[C@H](Cc2c[nH]c3ccc(F)cc23)NC(=O)[C@H](Cc2c[nH]c3ccc(F)cc23)NC(=O)CNC(=O)[C@H](CCCCN)NC(=O)CCSCc2cc(F)cc(c2)CSC[C@@H](C(N)=O)NC(=O)[C@]2(C)CCCN2C(=O)[C@H](Cc2ccc(O)cc2)NC1=O [Compound 043] ([Mpa]KG[Trp(5-F)][Trp(5-F)]PTY[αMeP]C-NH2; linker 1-10 via mXylylene(5-F)) | 0.1 to 1 | 0.1 to 1
6 | NCCCC[C@@H]1NC(=O)CCCCn2cc(nn2)CCC[C@@H](C(N)=O)NC(=O)[C@@H]2CCCN2C(=O)[C@H](Cc2ccc(O)cc2)NC(=O)[C@H](Cc2c[nH]cn2)NC(=O)[C@H](CC(=O)O)NC(=O)[C@H](Cc2c[nH]c3ccc(F)cc23)NC(=O)[C@H](Cc2c[nH]c3ccc(F)cc23)NC(=O)CNC1=O [Compound 153] | – | 1 to 12.1
7 | CN1CC(=O)N[C@H](C(N)=O)CSCc2cccc(c2)CSCCC(=O)N[C@@H](CCCCN)C(=O)NCC(=O)N[C@@H](Cc2c[nH]c3ccc(F)cc23)C(=O)N[C@@H](Cc2c[nH]c3ccc(F)cc23)C(=O)N[C@@H](CC(=O)O)C(=O)N[C@@H](Cc2cnc[nH]2)C(=O)N[C@@H](Cc2ccc(O)cc2)C1=O [Compound 194] ([Mpa]KG[Trp(5-F)][Trp(5-F)]DHY[Sar]C-NH2; linker 1-10 via mXylylene) | – | 21 to 50
8 | NCCCC[C@@H]1NC(=O)CCSCc2cccc(c2)CSC[C@@H](C(N)=O)NC(=O)[C@@H]2CCCN2C(=O)[C@H](Cc2ccc(O)cc2)NC(=O)[C@H](Cc2c[nH]cn2)NC(=O)[C@H](CC(=O)O)NC(=O)[C@H](Cc2c[nH]c3ccc(F)cc23)NC(=O)[C@H](Cc2cccc3ccccc23)NC(=O)CNC1=O [Compound 209] ([Mpa]KG[1Nal][Trp(5-F)]DHYPC-NH2; linker 1-10 via mXylylene) | – | 1 to 12.1
9 | C[C@H]1NC(=O)[C@H](CCCCN)NC(=O)CCSCc2cccc(c2)CSCCNC(=O)[C@]2(C)CCCN2C(=O)[C@H](Cc2ccc(C#N)cc2)NC(=O)[C@H](Cc2c[nH]cn2)NC(=O)[C@H](CC(=O)O)NC(=O)[C@H](Cc2c[nH]c3ccc(F)cc23)NC(=O)[C@H](Cc2c[nH]c3ccc(F)cc23)NC1=O [Compound 300] (cyclo(DH[Phe(4-CN)][αMeP][X4]K[dA][Trp(5-F)][Trp(5-F)])) | – | 0.1 to 1
10 | CC(C)[C@H]1C(=O)N[C@H](C(N)=O)CSCc2cccc(c2)CSCCC(=O)N[C@@H](CCCCN)C(=O)NCC(=O)N[C@@H](Cc2c[nH]c3ccc(F)cc23)C(=O)N[C@@H](Cc2c[nH]c3ccc(F)cc23)C(=O)N[C@@H](CC(=O)O)C(=O)N[C@@H](Cc2cnc[nH]2)C(=O)N[C@@H](Cc2ccc(O)cc2)C(=O)N1C [Compound 220] ([Mpa]KG[Trp(5-F)][Trp(5-F)]DHY[NMeV]C-NH2; linker 1-10 via mXylylene) | – | 21 to 50
11 | NCCCC[C@@H]1NC(=O)CCSCc2cccc(c2)CSC[C@@H](C(N)=O)NC(=O)[C@@H]2CCCN2C(=O)[C@H](Cc2ccc(-c3ccccc3)cc2)NC(=O)[C@H](Cc2c[nH]cn2)NC(=O)[C@H](CC(=O)O)NC(=O)[C@H](Cc2c[nH]c3ccc(F)cc23)NC(=O)[C@H](Cc2c[nH]c3ccc(F)cc23)NC(=O)CNC1=O [Compound 243] ([Mpa]KG[Trp(5-F)][Trp(5-F)]DH[Bip]PC-NH2; linker 1-10 via mXylylene) | – | 1 to 12.1
12 | CC(=O)N[C@H]1CCC(=O)NCCC[C@@H](C(N)=O)NC(=O)[C@@H]2CCCN2C(=O)[C@H](Cc2ccc(O)cc2)NC(=O)[C@H](Cc2c[nH]cn2)NC(=O)[C@H](CC(=O)O)NC(=O)[C@H](Cc2c[nH]c3ccc(F)cc23)NC(=O)[C@H](Cc2c[nH]c3ccc(F)cc23)NC(=O)CNC(=O)[C@H](CCCCN)NC1=O [Compound 179] (Ac-EKG[Trp(5-F)][Trp(5-F)]DHYP[Orn]-NH2; lactam 1-10) | – | 1 to 12.1
13 | NCCCC[C@@H]1NC(=O)CCSCc2cccc(c2)CSC[C@@H](C(N)=O)NC(=O)[C@@H]2CCCCN2C(=O)[C@H](Cc2ccc(O)cc2)NC(=O)[C@H](Cc2cnc[nH]2)NC(=O)[C@H](CC(=O)O)NC(=O)[C@H](Cc2c[nH]c3ccc(F)cc23)NC(=O)[C@H](Cc2c[nH]c3ccc(F)cc23)NC(=O)CNC1=O [Compound 208] ([Mpa]KG[Trp(5-F)][Trp(5-F)]DHY[Pip]C-NH2; linker 1-10 via mXylylene) | – | 21 to 50
14 | C[C@@]12CCCN1C(=O)[C@H](Cc1ccc(O)cc1)NC(=O)[C@H](Cc1cnc[nH]1)NC(=O)[C@H](CC(=O)O)NC(=O)[C@H](Cc1c[nH]c3ccc(F)cc13)NC(=O)[C@H](Cc1c[nH]c3ccc(F)cc13)NC(=O)CNC(=O)[C@H](CCCCN)NC(=O)CCSCc1cc(F)cc(c1)CSC[C@@H](C(N)=O)NC2=O [Compound 287] ([Mpa]KG[Trp(5-F)][Trp(5-F)]DHY[αMeP]C-NH2; linker 1-10 via mXylylene(5-F)) | – | 21 to 50
15 | CN1CC(=O)N[C@@H](Cc2c[nH]c3ccccc23)C(=O)N[C@@H](Cc2c[nH]c3ccccc23)C(=O)N(C)[C@@H](CC(=O)O)C(=O)N[C@@H](Cc2c[nH]cn2)C(=O)N[C@@H](Cc2ccc(O)cc2)C(=O)N2CCC[C@H]2C(=O)N[C@H](C(N)=O)CSCc2cccc(c2)CSCCC(=O)N[C@@H](CCCCN)C1=O [Compound 222] ([Mpa]K[Sar]WW[NMeD]HYPC-NH2; linker 1-10 via mXylylene) | – | 21 to 50
16 | C[C@@H]1NC(=O)[C@@H]2CCN2C(=O)[C@H](Cc2c[nH]c3ccc(F)cc23)NC(=O)[C@H](Cc2c[nH]c3ccc(F)cc23)NC(=O)[C@@H](C)NC(=O)[C@H](CCCCN)NC(=O)CCSCc2cccc(c2)CSCCNC(=O)[C@]2(C)CCCN2C(=O)[C@H](Cc2ccc(O)cc2)NC1=O [Compound 002] (cyclo(AY[αMeP][X4]K[dA][Trp(5-F)][Trp(5-F)][Aze])) | – | 21 to 50
17 | CCC[C@H](NC(C)=O)C(=O)N(C)[C@@H](CO)C(=O)N[C@@H](CCCCN)C(=O)N[C@H]1CSCc2cccc(c2)CSC[C@@H](C(N)=O)NC(=O)[C@@H]2CCCN2C(=O)[C@H](Cc2ccc(O)cc2)NC(=O)[C@H](Cc2c[nH]cn2)NC(=O)[C@H](CC(=O)O)NC(=O)[C@H](Cc2c[nH]c3ccc(F)cc23)NC(=O)[C@H](Cc2c[nH]c3ccc(F)cc23)NC(=O)CNC(=O)[C@H](CCCCN)NC1=O [Compound 145] (Ac-[Nva][NMeS]KCKG[Trp(5-F)][Trp(5-F)]DHYPC-NH2; linker 4-13 via mXylylene) | – | 1 to 12.1
18 | NCCCC[C@@H]1NC(=O)CCSCc2cccc(c2)CSC[C@@H](C(N)=O)NC(=O)[C@@H]2CCCN2C(=O)[C@@H](Cc2ccc(O)cc2)NC(=O)[C@H](Cc2cnc[nH]2)NC(=O)[C@H](CC(=O)O)NC(=O)[C@H](Cc2c[nH]c3ccc(F)cc23)NC(=O)[C@H](Cc2c[nH]c3ccc(F)cc23)NC(=O)CNC1=O [Compound 164] ([Mpa]KG[Trp(5-F)][Trp(5-F)]DH[dY]PC-NH2; linker 1-10 via mXylylene) | – | 21 to 50
19 | CC1(C)NC(=O)[C@H](Cc2c[nH]c3ccc(F)cc23)NC(=O)CNC(=O)[C@H](CCCCN)NC(=O)CCSCc2cccc(c2)CSC[C@@H](C(N)=O)NC(=O)[C@@H]2CCCN2C(=O)[C@H](Cc2ccc(O)cc2)NC(=O)[C@H](Cc2cnc[nH]2)NC(=O)[C@H](CC(=O)O)NC1=O [Compound 317] ([Mpa]KG[Trp(5-F)][Aib]DHYPC-NH2; linker 1-10 via mXylylene) | – | 21 to 50
